Source: patent US20130102009A1, “SIRTUIN ACTIVATORS AND ACTIVATION ASSAYS” (priority 2010, published 2013)
“And” between values parts separate entries of the source, which are not always exact repeats. Identical values can stand only once. Counter-ions that a name gives are not always drawn.

Columns and labels:
SIRT1 [1] = target: T1, SIRT1 (Homo sapiens, UniProt Q96EB6); assay: Mass spectrometry based SIRT1 activation assay (TAMRA/5TMR-labeled 20mer peptide); type: biochemical; conditions: for Emax: 25 min, percent maximum fold activation of SIRT1, read-out: % FOLD ACT.; for EC1.5 uM: concentration that results in 150% activation of SIRT1
T1 sequence (Q96EB6 1-747): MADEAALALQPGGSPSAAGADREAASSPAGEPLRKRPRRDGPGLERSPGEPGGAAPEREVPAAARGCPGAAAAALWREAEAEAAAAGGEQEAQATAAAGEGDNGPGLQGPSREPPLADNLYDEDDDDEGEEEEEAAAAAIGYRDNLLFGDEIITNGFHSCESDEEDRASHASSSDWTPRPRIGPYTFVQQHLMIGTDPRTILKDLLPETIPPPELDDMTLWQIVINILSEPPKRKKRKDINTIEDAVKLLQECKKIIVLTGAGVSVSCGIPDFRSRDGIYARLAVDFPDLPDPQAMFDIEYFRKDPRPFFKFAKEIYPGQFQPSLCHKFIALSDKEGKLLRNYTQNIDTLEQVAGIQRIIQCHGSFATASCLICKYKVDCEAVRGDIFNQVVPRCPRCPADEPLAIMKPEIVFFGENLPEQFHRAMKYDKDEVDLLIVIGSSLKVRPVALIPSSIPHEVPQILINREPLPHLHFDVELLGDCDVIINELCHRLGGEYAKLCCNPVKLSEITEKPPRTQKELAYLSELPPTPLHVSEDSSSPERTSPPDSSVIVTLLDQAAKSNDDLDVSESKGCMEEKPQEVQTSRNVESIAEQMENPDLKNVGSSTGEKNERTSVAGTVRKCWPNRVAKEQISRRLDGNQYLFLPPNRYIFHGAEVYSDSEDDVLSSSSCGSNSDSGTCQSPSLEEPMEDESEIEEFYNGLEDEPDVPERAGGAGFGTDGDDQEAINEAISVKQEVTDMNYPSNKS
From the text: A mass spectrometry based assay was used to identify modulators of SIRTI activity. The mass spectrometry based assay utilizes a peptide having 20 amino acid residues as follows: Ac-EE-K(biotin)-GQSTSSHSK(Ac)NleSTEG-K(5TMR)-EE-NH2 (SEQ ID NO: 1) wherein K(Ac) is an acetylated lysine residue and Nle is a norleucine. The peptide is labeled with the fluorophore 5TMR (excitation 540 nrnIemission 580 nm) at the C-terminus. The sequence of the peptide substrate is based on p53 with several modifications. In addition, the methionine residue naturally present in the sequence was replaced with the norleucine because the methionine may be susceptible to oxidation during synthesis and purification.
The mass spectrometry assay is conducted as follows: 0.5 J-1M peptide substrate and 120 μM βNAD^+ is incubated with 10 nM SIRT1 for 25 minutes at 25° C. in a reaction buffer (50 mM Tris-acetate pH 8, 137 mM NaCl, 2.7 mM KCl, 1 mM MgClz, 5 mM DTT, 0.05% BSA). Test compounds may be added to the reaction as described above. The SirTI gene is cloned into a T7-promoter containing vector and transformed into BL21 (DE3). After the 25 minute incubation with SIRT1, 10 μL of 10% formic acid is added to stop the reaction. Reactions are sealed and frozen for later mass spec analysis. Determination of the mass of the substrate peptide allows for precise determination of the degree of acetylation (i.e. starting material) as compared to deacetylated peptide (product).
A control for inhibition of sirtuin activity is conducted by adding 1 μL of 500 mM nicotinamide as a negative control at the start of the reaction (e.g., permits determination of maximum sirtuin inhibition). A control for activation of sirtuin activity is conducted using 10 nM of sirtuin protein, with 1 μL of DMSO in place of compound, to determine the amount of deacetylation of the substrate at a given timepoint within the linear range of the assay. This timepoint is the same as that used for test compounds and, within the linear range, the endpoint represents a change in velocity.
For the above assay, SIRTI protein was expressed and purified as follows. The SirT1 gene was cloned into a T7-promoter containing vector and transformed into BL21(DE3). The protein was expressed by induction with 1 mM IPTG as an N-terminal His-tag fusion protein at 18° C. overnight and harvested at 30,000×g. Cells were lysed with lysozyme in lysis buffer (50 mM Tris-HCl, 2 mM Tris[2-carboxyethyl]phosphine (TCEP), 10 μM ZnCl2, 200 mM NaCl) and further treated with sonication for 10 min for complete lysis. The protein was purified over a Ni-NTA column (Amersham) and fractions containing pure protein were pooled, concentrated and run over a sizing column (Sephadex S200 26/60 global). The peak containing soluble protein was collected and run on an Ion-exchange column (MonoQ). Gradient elution (200 mM-500 mM NaCl) yielded pure 20 protein. This protein was concentrated and dialyzed against dialysis buffer (20 mM TrisHCl, 2 mM TCEP) overnight. The protein was aliquoted and frozen at −80° C. until further use.
Sirtuin modulating compounds that activated SIRT1 were identified using the assay described above and are shown below in Table 4. The EC1.5 values represent the concentration of test compounds that result in 150% activation of SIRT1. The EC1.5 values for the activating compounds are represented by A (EC1.5≦1 μM), B (EC1.5>1 μM). The percent maximum fold activation is represented by A (Fold activation ≧200%) or B (Fold Activation <200%).

SIRT1 [2] = target: T1, SIRT1; assay: Mass spectroscopic kinetic assay of SIRT1-catalyzed deacetylation of 20mer peptides; type: biochemical; conditions: for Effect on the deacetylation of des(biotin,TAMRA)-peptide: substrate des(biotin,TAMRA)-peptide; for RVmax for activation of the deacetylation of desTAMRA-peptide / EC50: substrate desTAMRA-peptide, fit to eq (1); for EC50: read-out: EC50 for activation of the deacetylation of desTAMRA-peptide; for Ki,app for inhibition of the deacetylation of p53-20 mer / Ki: substrate p53-20 mer, RV=1/(1+([X]o/Ki,app)); for Ki: read-out: Ki,app for inhibition of the deacetylation of p53-20 mer
Procedure: Bovine glutamate dehydrogenase (GDH), α-ketoglutarate, NADH and NAD^+ were from Sigma Chemical Company. […] The nicotinamidase PNC1 was prepared as described by Denu and colleagues (Smith et al. (2009) Anal Biochem 394, 101-109). Our collection of approximately 5,000 SIRT1 activators was screened using the BioTrove mass spectrometry system, as previously described (Milne et al. (2007) Nature 450, 712-716). […] Compounds were present at 10 μM, and the assays were conducted in a pH 7.4 buffer containing 150 mM Tris, 5 mM DTT, 1% DMSO, and 0.025% BSA. To determine the interaction of STACs with SIRT1 two kinetic methods were employed. […] (2007) Nature 450, 712-716). The other, used with peptides of general structure […], used a continuous, enzyme-coupled method reported previously (Smith et al. (2009) Anal Biochem 394, 101-109), in which the SRT1 product nicotinamide is first converted into nicotinic acid and ammonia by the action of PNC1, and the ammonia then used by GDH to convert α-ketoglutarate into glutamate. This reaction occurs with oxidation of NADH to NAD^+ which is accompanied by a change in absorbance at 340 nm (Δε340=-6,200 M^-1 cm^-1). Activator titrations were plotted as relative velocity (i.e., the ratio of vx, velocity in the presence of activator X, to vo, velocity in the absence of activator) vs. [X]o, initial concentration of activator, and fit by nonlinear least-squares to the mechanism-independent expression for enzyme activation of […] the maximum relative velocity (i.e., vx/vo at infinite [X]o) and EC50 is the activator concentration at which vx/vo=(RVmax-1)/2. EC50 is a function of the kinetic mechanisms of both catalysis and activation, and the concentrations of substrates.

Compound: CCCCc1nc(NCCNC)cc(C(=O)Nc2ccccc2-c2nc3cc(COC4CCNCC4)cnc3s2)n1 [Compound 12, 2-butyl-6-(2-(methylamino)ethylamino)-N-(2-(6-((piperidin-4-yloxy)methyl)thiazolo[5,4-b]pyridin-2-yl)phenyl)pyrimidine-4-carboxamide]
- Emax (SIRT1 [1]): ≥ 200%
- EC1.5 uM (SIRT1 [1]): A (EC1.5≦1 μM)
- Effect on the deacetylation of des(biotin,TAMRA)-peptide (SIRT1 [2]): none activate
- RVmax for activation of the deacetylation of desTAMRA-peptide (SIRT1 [2]): ~2.3
- RVmax for activation of the deacetylation of desTAMRA-peptide (SIRT1 [2]; listed as 24): 2.1 ± 0.1
- EC50 (SIRT1 [2]): ~2000 nM and 1500 nM
- Ki,app for inhibition of the deacetylation of p53-20 mer (SIRT1 [2]): inhibit
- Ki (SIRT1 [2]): 9000 ± 3000 nM

Compound: COc1ccc(C(=O)Nc2ccccc2-c2nc3cc(COC4CCNCC4)cnc3s2)cc1OC [Compound 8, 3,4-dimethoxy-N-(2-(6-((piperidin-4-yloxy)methyl)thiazolo[5,4-b]pyridin-2-yl)phenyl)benzamide]
- Emax (SIRT1 [1]): ≥ 200%
- EC1.5 uM (SIRT1 [1]): A (EC1.5≦1 μM)

Compound: O=C(Nc1ccccc1-c1cn2c(CN3CCNCC3)csc2n1)c1nc2ncccc2o1 [Compound 3, N-(2-(3-(piperazin-1-ylmethyl)imidazo[2,1-b]thiazol-6-yl)phenyl)oxazolo[4,5-b]pyridine-2-carboxamide]
- Emax (SIRT1 [1]): < 200%
- EC1.5 uM (SIRT1 [1]): B (EC1.5>1 μM)

Compound: CC(C)Cc1nc(NC2CCNCC2)cc(C(=O)Nc2ccccc2-c2nc3cc(COC4CCNCC4)cnc3s2)n1 [Compound 11, 2-isobutyl-6-(piperidin-4-ylamino)-N-(2-(6-((piperidin-4-yloxy)methyl)thiazolo[5,4-b]pyridin-2-yl)phenyl)pyrimidine-4-carboxamide]
- Emax (SIRT1 [1]): ≥ 200%
- EC1.5 uM (SIRT1 [1]): A (EC1.5≦1 μM)
- Effect on the deacetylation of des(biotin,TAMRA)-peptide (SIRT1 [2]): none activate
- RVmax for activation of the deacetylation of desTAMRA-peptide (SIRT1 [2]): ~2.3
- RVmax for activation of the deacetylation of desTAMRA-peptide (SIRT1 [2]; listed as 23): 2.8±0.2
- EC50 (SIRT1 [2]): ~2000 nM and 2200 nM
- Ki,app for inhibition of the deacetylation of p53-20 mer (SIRT1 [2]): inhibit
- Ki (SIRT1 [2]): 10000 ± 1000 nM

Compound: CCCCN(CCCC)c1cc(-c2nc3c(C(=O)Nc4cccc(COC5CCNCC5)c4)cccc3[nH]2)ccn1 [Compound 21]
- Emax (SIRT1 [1]): ≥ 200%
- EC1.5 uM (SIRT1 [1]): A (EC1.5≦1 μM)

Compound: O=C(Nc1ccccc1-c1cn2c(CN3CCNCC3)csc2n1)c1cccc(-c2ccccc2)c1 [Compound 1, N-(2-(3-(piperazin-1-ylmethyl)imidazo[2,1-b]thiazol-6-yl)phenyl)biphenyl-3-carboxamide]
- Emax (SIRT1 [1]): ≥ 200%
- EC1.5 uM (SIRT1 [1]): A (EC1.5≦1 μM)

Compound: N#Cc1ccc(NC(=O)c2cccc3[nH]c(-c4ccc(N5CCNCC5)nc4)nc23)cc1C(F)(F)F [Compound 20, N-(4-cyano-3-(trifluoromethyl)phenyl)-2-(6-(piperazin-1-yl)pyridin-3-yl)-1H-benzo[d]imidazole-4-carboxamide]
- Emax (SIRT1 [1]): ≥ 200%
- EC1.5 uM (SIRT1 [1]): A (EC1.5≦1 μM)

Compound: CC(C)CNCC1CC1C(=O)Nc1ccccc1-c1nc2cc(CN3CCNCC3)cnc2s1 (stereo not drawn) [Compound 6]
- EC1.5 uM (SIRT1 [1]): B (EC1.5>1 μM)

Compound: CN(C)CCNCc1cccc(C(=O)Nc2ccccc2-c2nc3cc(COC4CCNCC4)cnc3s2)c1 [Compound 9]
- Emax (SIRT1 [1]): < 200%
- EC1.5 uM (SIRT1 [1]): B (EC1.5>1 μM)

Compound: COc1ccc2nc(NC(=O)c3cccc4[nH]c(-c5ccc(N6CCNCC6)nc5)nc34)sc2c1 [Compound 19, N-(6-methoxybenzo[d]thiazol-2-yl)-2-(6-(piperazin-1-yl)pyridin-3-yl)-1H-benzo[d]imidazole-4-carboxamide]
- Emax (SIRT1 [1]): ≥ 200%
- EC1.5 uM (SIRT1 [1]): A (EC1.5≦1 μM)

Compound: O=C(Nc1cccc(COC2CCNCC2)c1)c1cccc2[nH]c(-c3ccnc(N4CCOCC4)c3)nc12 [Compound 17, 2-(2-morpholinopyridin-4-yl)-N-(3-((piperidin-4-yloxy)methyl)phenyl)-1H-benzo[d]imidazole-4-carboxamide]
- Emax (SIRT1 [1]): ≥ 200%
- EC1.5 uM (SIRT1 [1]): A (EC1.5≦1 μM)

Compound: CCCNc1cc(-c2nc3c(NC(=O)c4cccc(C5CCNC5)c4)cccc3[nH]2)ccn1 (stereo not drawn) [Compound 15, N-(2-(2-(propylamino)pyridin-4-yl)-1H-benzo[d]imidazol-4-yl)-3-(pyrrolidin-3-yl)benzamide hydrochloride]
- Emax (SIRT1 [1]): ≥ 200%
- EC1.5 uM (SIRT1 [1]): A (EC1.5≦1 μM)

Compound: CN(C)CCCNc1ccc(-c2nc3cc(NC(=O)c4cccc(CN5CCNCC5)c4)ccc3[nH]2)cn1 [Compound 18]
- Emax (SIRT1 [1]): < 200%
- EC1.5 uM (SIRT1 [1]): B (EC1.5>1 μM)

Compound: O=C(Nc1ccccc1-c1nc2cc(CN3CC[C@@H](F)C3)cnc2s1)c1cccc(OC2CN3CCC2CC3)c1 (stereo partly drawn) [Compound 5, N-(2-(6-(((R)-3-fluoropyrrolidin-1-yl)methyl)thiazolo[5,4-b]pyridin-2-yl)phenyl)-3-(quinuclidin-3-yloxy)benzamide]
- Emax (SIRT1 [1]): ≥ 200%
- EC1.5 uM (SIRT1 [1]): B (EC1.5>1 μM)
